Results on 22 compounds are retold here after patent publication US12187723B2 (BRISTOL-MYERS SQUIBB COMPANY, priority 2019, dated 2025).

This experiment concerns the target T1, human TLR8 (Homo sapiens, UniProt Q9NR97).
T1 construct: host or cells: HEK-Blue cells
T1 sequence (Q9NR97 27-1041): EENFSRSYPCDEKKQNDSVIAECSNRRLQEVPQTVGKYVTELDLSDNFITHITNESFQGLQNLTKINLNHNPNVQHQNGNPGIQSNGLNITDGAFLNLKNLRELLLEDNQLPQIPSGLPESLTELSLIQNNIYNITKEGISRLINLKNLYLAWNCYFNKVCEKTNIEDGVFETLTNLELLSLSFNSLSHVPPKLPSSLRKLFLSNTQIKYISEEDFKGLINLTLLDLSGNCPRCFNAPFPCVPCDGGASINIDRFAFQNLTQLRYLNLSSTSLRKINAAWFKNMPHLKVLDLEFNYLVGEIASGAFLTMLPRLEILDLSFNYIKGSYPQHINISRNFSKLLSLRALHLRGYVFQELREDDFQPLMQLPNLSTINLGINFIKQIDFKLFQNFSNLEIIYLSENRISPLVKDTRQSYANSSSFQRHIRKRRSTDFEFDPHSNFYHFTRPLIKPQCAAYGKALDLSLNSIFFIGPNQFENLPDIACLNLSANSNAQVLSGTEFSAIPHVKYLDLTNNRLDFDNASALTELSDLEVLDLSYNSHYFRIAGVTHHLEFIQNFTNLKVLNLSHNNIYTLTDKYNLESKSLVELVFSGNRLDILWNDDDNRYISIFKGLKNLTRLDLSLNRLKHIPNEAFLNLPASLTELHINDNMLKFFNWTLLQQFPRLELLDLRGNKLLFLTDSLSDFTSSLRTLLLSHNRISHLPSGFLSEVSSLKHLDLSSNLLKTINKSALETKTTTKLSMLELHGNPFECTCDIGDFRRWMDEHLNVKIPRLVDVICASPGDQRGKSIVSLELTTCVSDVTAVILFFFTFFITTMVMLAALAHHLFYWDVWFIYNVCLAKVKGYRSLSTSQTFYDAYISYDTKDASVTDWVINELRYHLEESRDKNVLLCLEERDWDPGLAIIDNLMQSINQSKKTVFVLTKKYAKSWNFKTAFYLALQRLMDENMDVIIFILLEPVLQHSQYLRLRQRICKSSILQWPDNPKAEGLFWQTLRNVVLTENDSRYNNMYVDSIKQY
Put plainly: TLR8 inhibition reporter assay (HEK-Blue SEAP). The conditions noted are these: HEK-Blue cells overexpressing human TLR8, R848 15.9 μM, 22 hour incubation. Type of experiment: cell-based. The gist of the method: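 Dose–response from 0.05 nM to 50 μM was run in HEK-Blue human TLR7, TLR8 and TLR9 reporter cells. After 30 min at room temperature with compound, ligand was added (TLR7 gardiquimod 7.5 μM; TLR8 R848 15.9 μM; TLR9 ODN2006 5 nM) and SEAP measured next day, at 22 h.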
Background: In a reporter assay the amount or activity of a reporter protein is the signal.
Broadly, the IC50 is the midpoint of a concentration-inhibition curve. Read a high IC50 as a need for much substance. `COc1cc(-c2cc3[nH]c(=O)n(C4CCC(N5CC(O)(C(F)(F)F)C5)CC4)c3cc2C(C)C)cn2ncnc12` (single isomer, unassigned) [Example 242, 1-(4-(3-hydroxy-3-(trifluoromethyl)azetidin-1-yl)cyclohexyl)-6-isopropyl-5-(8-methoxy-[1,2,4]triazolo[1,5-a]pyridin-6-yl)-1,3-dihydro-2H-benzo[d]imidazol-2-one] displayed an IC50 of 1.12 nM. Under `COc1cc(-c2cc3[nH]c(=O)n([C@@H]4CCCN(C5CCCOC5)C4)c3cc2C(C)C)cn2ncnc12` (single isomer, unassigned) [Example 218] stands 5.19 nM; under `COc1c(C)c(-c2cc3[nH]c(=O)n(C4CCC(N5CCC(F)(F)CC5)CC4)c3cc2C(C)C)cn2ncnc12` (single isomer, unassigned) [Example 230, 1-(4-(4,4-difluoropiperidin-1-yl)cyclohexyl)-6-isopropyl-5-(8-methoxy-7-methyl-[1,2,4]triazolo[1,5-a]pyridin-6-yl)-1,3-dihydro-2H-benzo[d]imidazol-2-one], 5.49 nM.

With `Cc1c(-c2cc3[nH]c(=O)n([C@H]4CC[C@@H](NC5CCOCC5)CC4)c3cc2C(C)C)cn2ncnc2c1C` [Example 187, 5-(7,8-dimethyl-[1,2,4]triazolo[1,5-a]pyridin-6-yl)-6-isopropyl-1-((1s,4s)-4-((tetrahydro-2H-pyran-4-yl)amino)cyclohexyl)-1,3-dihydro-2H-benzo[d]imidazol-2-one], the IC50 is 0.8 nM.

`Cc1c(-c2cc3[nH]c(=O)n([C@H]4CC[C@@H](NC5COC5)CC4)c3cc2C(C)C)cn2ncnc2c1C` [Example 188, 5-(7,8-dimethyl-[1,2,4]triazolo[1,5-a]pyridin-6-yl)-6-isopropyl-1-((1s,4s)-4-(oxetan-3-ylamino)cyclohexyl)-1,3-dihydro-2H-benzo[d]imidazol-2-one] yielded an IC50 of 0.95 nM. Regarding `CCN[C@H]1CC[C@@H](n2c(=O)[nH]c3cc(-c4cn5ncnc5c(C)c4C)c(C(C)C)cc32)CC1` [Example 189, 5-(7,8-dimethyl-[1,2,4]triazolo[1,5-a]pyridin-6-yl)-1-((1s,4s)-4-(ethylamino)cyclohexyl)-6-isopropyl-1,3-dihydro-2H-benzo[d]imidazol-2-one], it took 3.11 nM to reach half-maximal inhibition (IC50). `CCc1cc2c(cc1-c1cc(OC)c3ncnn3c1)[nH]c(=O)n2[C@@H]1CCCN(C2COC2)C1` [Example 173, (R)-6-ethyl-5-(8-methoxy-[1,2,4]triazolo[1,5-a]pyridin-6-yl)-1-(1-(oxetan-3-yl)piperidin-3-yl)-1,3-dihydro-2H-benzo[d]imidazol-2-one] returned an IC50 of 18 nM.

The compound `CCc1cc2c(cc1-c1cc(OC)c3ncnn3c1)[nH]c(=O)n2[C@H]1CC[C@@H](NC2COC2)CC1` [Example 170, 6-ethyl-5-(8-methoxy-[1,2,4]triazolo[1,5-a]pyridin-6-yl)-1-((1s,4s)-4-(oxetan-3-ylamino)cyclohexyl)-1,3-dihydro-2H-benzo[d]imidazol-2-one] had an IC50 of 1.27 nM. `COc1cc(-c2cc3[nH]c(=O)n([C@H]4CC[C@H](NCC(C)C)CC4)c3cc2C(C)C)cn2ncnc12` [Example 204, 1-((1r,4s)-4-(isobutylamino)cyclohexyl)-6-isopropyl-5-(8-methoxy-[1,2,4]triazolo[1,5-a]pyridin-6-yl)-1,3-dihydro-2H-benzo[d]imidazol-2-one] gave a concentration for half-maximal inhibition (IC50) of 1.23 nM. Regarding `CCc1cc2c(cc1-c1cc(OC)c3ncnn3c1)[nH]c(=O)n2[C@@H]1CCCN(C2CCOC2)C1` (stereo partly drawn) [Example 213, 6-ethyl-5-(8-methoxy-[1,2,4]triazolo[1,5-a]pyridin-6-yl)-1-((3R)-1-(tetrahydrofuran-3-yl)piperidin-3-yl)-1,3-dihydro-2H-benzo[d]imidazol-2-one], half-maximal inhibition (IC50) required 4.62 nM. Consider `COc1cc(-c2cc3[nH]c(=O)n(C4CCC(N5CCCC5)CC4)c3cc2C(C)C)cn2ncnc12` (stereo not shown) [Example 231, 6-isopropyl-5-(8-methoxy-[1,2,4]triazolo[1,5-a]pyridin-6-yl)-1-(4-(pyrrolidin-1-yl)cyclohexyl)-1,3-dihydro-2H-benzo[d]imidazol-2-one], for which half-maximal inhibition (IC50) was put at 0.81 nM. For the compound `Cc1cc2c(cc1-c1cc(C)c3ncnn3c1)[nH]c(=O)n2[C@@H]1CCCN(C)C1` [Example 15, (R)-6-methyl-5-(8-methyl-[1,2,4]triazolo[1,5-a]pyridin-6-yl)-1-(1-methylpiperidin-3-yl)-1,3-dihydro-2H-benzo[d]imidazol-2-one], the concentration for half-maximal inhibition (IC50) stood at 22.9 nM.

In the case of `COc1cc(-c2cc3[nH]c(=O)n([C@H]4CC[C@@H](N(C)C)CC4)c3cc2C(C)C)cn2ncnc12` [Example 191, 1-((1s,4s)-4-(dimethylamino)cyclohexyl)-6-isopropyl-5-(8-methoxy-[1,2,4]triazolo[1,5-a]pyridin-6-yl)-1,3-dihydro-2H-benzo[d]imidazol-2-one], the IC50 turned out to be 0.58 nM. `COc1cc(-c2cc3[nH]c(=O)n(C4CCC(N5CC(OC)C5)CC4)c3cc2C(C)C)cn2ncnc12` (stereo not shown) [Example 237, 6-isopropyl-5-(8-methoxy-[1,2,4]triazolo[1,5-a]pyridin-6-yl)-1-(4-(3-methoxyazetidin-1-yl)cyclohexyl)-1,3-dihydro-2H-benzo[d]imidazol-2-one] returned a concentration for half-maximal inhibition (IC50) of 0.33 nM. `COc1cc(-c2cc3[nH]c(=O)n([C@H]4CC[C@H](N(CC5CC5)CC5CC5)CC4)c3cc2C(C)C)cn2ncnc12` [Example 206, 1-((1r,4s)-4-(bis(cyclopropylmethyl)amino)cyclohexyl)-6-isopropyl-5-(8-methoxy-[1,2,4]triazolo[1,5-a]pyridin-6-yl)-1,3-dihydro-2H-benzo[d]imidazol-2-one]: 0.57 nM corresponded to half-maximal inhibition (IC50). Compound `COc1cc(-c2cc3[nH]c(=O)n(C4CCC(N5CCC6(CC5)COC6)CC4)c3cc2C(C)C)cn2ncnc12` (stereo not shown) [Example 239, 1-(4-(2-oxa-7-azaspiro[3.5]nonan-7-yl)cyclohexyl)-6-isopropyl-5-(8-methoxy-[1,2,4]triazolo[1,5-a]pyridin-6-yl)-1,3-dihydro-2H-benzo[d]imidazol-2-one] displayed an IC50 of 0.21 nM. The value for `CCCN(CCC)[C@H]1CC[C@@H](n2c(=O)[nH]c3cc(-c4cn5ncnc5c(C)c4C)c(C(C)C)cc32)CC1` [Example 199, 5-(7,8-dimethyl-[1,2,4]triazolo[1,5-a]pyridin-6-yl)-1-((1s,4s)-4-(dipropylamino)cyclohexyl)-6-isopropyl-1,3-dihydro-2H-benzo[d]imidazol-2-one] was 0.53 nM. In turn, `COc1cc(-c2cc3[nH]c(=O)n([C@@H]4CCCN(C5CCCOC5)C4)c3cc2C(C)C)cn2ncnc12` (single isomer, unassigned) [Example 219] had a concentration for half-maximal inhibition (IC50) of 0.15 nM. Under `CCc1cc2c(cc1-c1cc(OC)c3ncnn3c1)[nH]c(=O)n2[C@@H]1CCCN(CC(CC)CC)C1` [Example 178, (R)-6-ethyl-1-(1-(2-ethylbutyl)piperidin-3-yl)-5-(8-methoxy-[1,2,4]triazolo[1,5-a]pyridin-6-yl)-1,3-dihydro-2H-benzo[d]imidazol-2-one] stands 2.62 nM. In turn, `Cc1cc2c(cc1-c1cc(C)c3ncnn3c1)[nH]c(=O)n2[C@H]1CCCN(C2COC2)C1` [Example 14, (S)-6-methyl-5-(8-methyl-[1,2,4]triazolo[1,5-a]pyridin-6-yl)-1-(1-(oxetan-3-yl)piperidin-3-yl)-1,3-dihydro-2H-benzo[d]imidazol-2-one] yielded a half-inhibitory concentration (IC50) of 155 nM. Under `COc1cc(-c2cc3[nH]c(=O)n(C4CCC(N5CC6(CCOCC6)C5)CC4)c3cc2C(C)C)cn2ncnc12` (single isomer, unassigned) [Example 235, 1-(4-(7-oxa-2-azaspiro[3.5]nonan-2-yl)cyclohexyl)-6-isopropyl-5-(8-methoxy-[1,2,4]triazolo[1,5-a]pyridin-6-yl)-1,3-dihydro-2H-benzo[d]imidazol-2-one] stands 0.39 nM; under `COc1cc(-c2cc3[nH]c(=O)n(C4CCC(N5CCNC(=O)C5)CC4)c3cc2C(C)C)cn2ncnc12` (single isomer, unassigned) [Example 233, 6-isopropyl-5-(8-methoxy-[1,2,4]triazolo[1,5-a]pyridin-6-yl)-1-(4-(3-oxopiperazin-1-yl)cyclohexyl)-1,3-dihydro-2H-benzo[d]imidazol-2-one], 1.9 nM.
